Data on eight molecules can be found in patent publication US4560687A, “Substituted aromatic compounds” (priority 1979, dated 1985).

Like-named read-outs stand apart in the source and are kept apart here.

One data set deals with Plasmadium berghei. To be noted: Plasmadium berghei in mice; Rees et al, 1972; cited from earlier work.
For data set [1] the following is noted: cited from earlier work; for toxicity: at curative doses.
Data set [2] in a line: standard maximal electroshock test (anticonvulsant activity). Type of data set: in vivo. To be noted: Mus musculus, po, mice. As for the experimental part: The anticonvulsant activity of the compounds of the present invention was determined by a standard maximal electroshock test, that described by L. A. Woodbury and V. D. Davenport, Arch. Int. Pharmacodyn., 1952, 92, 97.
For orientation: The maximal electroshock test induces tonic seizures with an electrical stimulus.

For data set [3] the following is noted: anti-malarial agents tested as anticonvulsants; Rosenburg and Bottiroli, 1964; cited from earlier work.

Consider `Nc1nnc(-c2ccc(Cl)cc2Cl)c(N)n1` [2,4-dichlorophenyl], for which, in the data set with Plasmadium berghei, the activity against malaria entry is given as “only slight antimalarial activity”.

Turning to `Nc1nnc(-c2ccc(Cl)c(Cl)c2)c(N)n1` [3,4-dichlorophenyl], in the data set on Plasmadium berghei, the activity against malaria entry is “active against the malaria organism”. Also, the toxicity result in data set [1] (Rees et al, 1972) was “toxic at curative doses”. Besides, the therapeutic ratio entry in data set [1] (mouse, in vivo) is listed as “low therapeutic ratio”.

As to `Nc1nnc(-c2cc3ccccc3cc2Cl)c(N)n1` [3,5-diamino-6-(3-chloro-2-naphthyl)-1,2,4-triazine], the ED50 in data set [2] was 12 mg/kg.

In data set [2], `Cc1cc(Cl)ccc1-c1nnc(N)nc1N` [3,5-diamino-6-(4-chloro-2-methylphenyl)-1,2,4-triazine] had an ED50 of 14.8 mg/kg.

In turn, `Nc1nnc(-c2ccc(Cl)c(C(F)(F)F)c2)c(N)n1` [3,5-diamino-6-(4-chloro-3-trifluoromethylphenyl)-1,2,4-triazine] came in with an ED50 in data set [2] of 18.5 mg/kg.

`Nc1nnc(-c2ccc(Cl)cc2)c(N)n1` [4-chlorophenyl]: in the data set with Plasmadium berghei, the activity against malaria result is “active against the malaria organism”. Also, the toxicity result in data set [1] (Rees et al, 1972) is on record as “toxic at curative doses”. Besides, in data set [1] (malaria context, Rees et al, 1972), the therapeutic ratio result was “low therapeutic ratio”.

Regarding `Nc1nnc(-c2ccc(C(F)(F)F)cc2)c(N)n1` [4-trifluoromethylphenyl], the activity against malaria result in the data set on Plasmadium berghei is reported as “still being active against malaria”. The toxicity entry in data set [1] (Rees et al, 1972) was “less toxic than the chlorophenyl compounds”.

As for `CCN(CCO)CCCC(C)Nc1ccnc2cc(Cl)ccc12` (stereo not shown) [hydroxychloroquine], the anticonvulsant activity profile entry in data set [3] is recorded as “favourable activity profile”.

What is called ED50 is the dose that gives a 50% effect, or the effect in half of the subjects. Low readings indicate an effect at a small dose, high ones a need for a large dose.
